Structures are written as SMILES.

The subject of the first test is NL-RLuc virus (recombinant HIV NL4-3 with Renilla Luciferase) in MT-2 cells. The test can be described thus: Inhibition of HIV replication (NL-RLuc virus in MT-2 cells, luciferase readout). Format: cell-based, human immunodeficiency virus (HIV). Particulars: MT2, 120 h, NL-RLuc virus infecting MT-2 cells, 5 days of incubation, 10% FBS, luciferase quantitation; at least 2 experiments. An excerpt:
Inhibition of HIV Replication:
A recombinant NL-RLuc proviral clone was constructed in which a section of the nef gene from NL4-3 was replaced with the Renilla Luciferase gene. This virus is fully infectious and can undergo multiple cycles of replication in cell culture. In addition, the luciferous reporter provides a simple and easy method for quantitating the extent of virus growth and consequently, the antiviral activity of test compounds. The plasmid pNLRLuc contains the proviral NL-Rluc DNA cloned into pUC 18 at the PvuII site. The NL-RLuc virus was prepared by transfection of 293T cells with the plasmid pNLRLuc. Transfections were performed using the LipofectAMINE PLUS kit from Invitrogen (Carlsbad, Calif.) according to the manufacturer and the virus generated was titered in MT-2 cells. For susceptibility analyses, the titrated virus was used to infect MT-2 cells in the presence of compound, and after 5 days of incubation, cells were processed and quantitated for virus growth by the amount of expressed luciferase. Assay media was RPMI 1640 supplemented with 10% heat inactivated fetal bovine serum (FBS), 100 units/ml penicillin G/100 units/ml streptomycin, 10 mM HEPES buffer pH 7.55 and 2 mM L-glutamine. The results from at least 2 experiments were used to calculate the EC50 values. Luciferase was quantitated using the Dual Luciferase kit from Promega (Madison, Wis.). Susceptibility of viruses to compounds was determined by incubation in the presence of serial dilutions of the compound. The 50% effective concentration (EC50) was calculated by using the exponential form of the median effect equation where (Fa)=1/[1+(ED50/drug conc.)^m] (Johnson V A, Byington R T. Infectivity Assay. In Techniques in HIV Research. ed. Aldovini A, Walker B D. 71-76. New York: Stockton Press. 1990).
Regarding `Cc1nc2cc3nn2c(c1[C@H](OC(C)(C)C)C(=O)O)N1CCC(C)(CC1)OCCCCC(C(F)(F)F)Oc1cc(F)ccc1COC3` (stereo partly drawn) [Example 54, (2S)-2-(tert-butoxy)-2-[16-fluoro-4,26-dimethyl-20-(trifluoromethyl)-11,19,25-trioxa-1,5,7,8-tetraazapentacyclo[24.2.2.1^6,^9.0^2,^7.0^13,^18]hentriaconta-2,4,6(31),8,13,15,17-heptaen-3-yl]acetic acid], the EC50 was 7 nM.

With `Cc1nc2cc3nn2c(c1[C@H](OC(C)(C)C)C(=O)O)N1CCC(C)(CC1)OCCCCOc1cccc(c1)-c1cn(nn1)C3` [Example 6, (2S)-2-(tert-Butoxy)-2-{4,26-dimethyl-20,25-dioxa-1,5,7,8,11,12,13-heptaazahexacyclo[24.2.2.1^6,^9.1^11,^14.1^15,^19.0^2,^7]tritriaconta-2,4,6(33),8,12,14(32),15(31),16,18-nonaen-3-yl}acetic acid], the half-maximal effective concentration (EC50) turned out to be 80 nM.

Turning to `Cc1cc2c(cc1Cl)COCc1cc3nc(C)c([C@H](OC(C)(C)C)C(=O)O)c(n3n1)N1CCC(C)(CC1)OCCCCC[C@H](C)O2` [Example 70, (2S)-2-(tert-Butoxy)-2-[(20S)-15-chloro-4,16,20,27-tetramethyl-11,19,26-trioxa-1,5,7,8-tetraazapentacyclo[25.2.2.1^6,^9.0^2,^7.0^13,^18]dotriaconta-2,4,6(32),8,13,15,17-heptaen-3-yl]acetic acid], the EC50 came to 43 nM.

Take `Cc1nc2cc3nn2c(c1[C@H](OC(C)(C)C)C(=O)O)N1CCC(C)(CC1)OCCCC[C@H](C)Oc1ccc(F)c(F)c1CCC3` [Example 42, (2S)-2-(tert-Butoxy)-2-[(20S)-14,15-difluoro-4,20,26-trimethyl-19,25-dioxa-1,5,7,8-tetraazapentacyclo[24.2.2.1^6,^9.0^2,^7.0^13,^18]hentriaconta-2,4,6(31),8,13(18),14,16-heptaen-3-yl]acetic acid]: the EC50 was determined as 2 nM.

For `Cc1nc2cc3nn2c(c1[C@H](OC(C)(C)C)C(=O)O)N1CCC(C)(CC1)OCCCCc1ccccc1COC3` [Example 24, (2S)-2-(tert-Butoxy)-2-{4,24-dimethyl-11,23-dioxa-1,5,7,8-tetraazapentacyclo[22.2.2.1^6,^9.0^2,^7.0^13,^18]nonacosa-2,4,6(29),8,13(18),14,16-heptaen-3-yl}acetic acid], the EC50 turned out to be 3 nM.

On to `Cc1nc2cc3nn2c(c1[C@H](OC(C)(C)C)C(=O)O)N1CCC(C)(CC1)OCCCCOCc1ccccc1-c1cn(nn1)C3` [Example 5, (2S)-2-(tert-Butoxy)-2-{4,28-dimethyl-22,27-dioxa-1,5,7,8,11,12,13-heptaazahexacyclo[26.2.2.1^6,^9.1^11,^14.0^2,^7.0^15,^20]tetratriaconta-2,4,6(34),8,12,14(33),15(20),16,18-nonaen-3-yl}acetic acid], for which the EC50 stood at 45 nM.

With `Cc1ccc2c(c1)O[C@@H](C)CCCCOC1(C)CCN(CC1)c1c([C@H](OC(C)(C)C)C(=O)O)c(C)nc3cc(nn13)CN(C1CC1)C2` [Example 64, (2S)-2-(tert-Butoxy)-2-[(20S)-11-cyclopropyl-4,16,20,26-tetramethyl-19,25-dioxa-1,5,7,8,11-pentaazapentacyclo[24.2.2.1^6,^9.0^2,^7.0^13,^18]hentriaconta-2,4,6(31),8,13(18),14,16-heptaen-3-yl]acetic acid], the 50% effective concentration (EC50) worked out at 12 nM.

In the case of `Cc1ccc2c(c1)COCc1cc3nc(C)c([C@H](OC(C)(C)C)C(=O)O)c(n3n1)N1CCC(C)(CC1)OCCCC[C@H](C)O2` [Example 30, (2S)-2-(tert-Butoxy)-2-[(20S)-4,15,20,26-tetramethyl-11,19,25-trioxa-1,5,7,8-tetraazapentacyclo[24.2.2.1^6,^9.0^2,^7.0^13,^18]hentriaconta-2,4,6(31),8,13,15,17-heptaen-3-yl]acetic], the 50% effective concentration (EC50) came to 64 nM.

`Cc1nc2cc3nn2c(c1[C@H](OC(C)(C)C)C(=O)O)N1CCC(C)(CC1)OCCCCOC(CC(C)C)c1cn(nn1)C3` (stereo partly drawn) [Example 12, (2S)-2-(tert-Butoxy)-2-[4,22-dimethyl-15-(2-methylpropyl)-16,21-dioxa-1,5,7,8,11,12,13-heptaazapentacyclo[20.2.2.1^6,^9.1^11,^14.0^2,^7]octacosa-2,4,6(28),8,12,14(27)-hexaen-3-yl]acetic acid]: the 50% effective concentration (EC50) turned out to be 136 nM.

Consider `Cc1nc2cc3nn2c(c1[C@H](OC(C)(C)C)C(=O)O)N1CCC(C)(CC1)OCCCCc1cccc(c1)COC3` [Example 63, (2S)-2-(tert-Butoxy)-2-{4,23-dimethyl-11,22-dioxa-1,5,7,8-tetraazapentacyclo[21.2.2.1^6,^9.1^13,^17.0^2,^7]nonacosa-2,4,6(29),8,13(28),14,16-heptaen-3-yl}acetic acid], for which the EC50 came out at 16 nM.

As for `Cc1nc2cc3nn2c(c1[C@H](OC(C)(C)C)C(=O)O)N1CCC(C)(CC1)OCCCCc1cc(F)c(F)cc1COC3` [Example 68, (2S)-2-(tert-Butoxy)-2-{15,16-difluoro-4,24-dimethyl-11,23-dioxa-1,5,7,8-tetraazapentacyclo[22.2.2.1^6,^9.0^2,^7.0^13,^18]nonacosa-2,4,6(29),8,13(18),14,16-heptaen-3-yl}acetic acid], the half-maximal effective concentration (EC50) came to 1 nM.

The test is the same for the next values; noted with them: {}.
`Cc1ccc(C2CCCCOC3(C)CCN(CC3)c3c([C@H](OC(C)(C)C)C(=O)O)c(C)nc4cc(nn34)CO2)cc1` (stereo partly drawn) [Example 46, (2S)-2-(tert-butoxy)-2-[4,18-dimethyl-12-(4-methylphenyl)-11,17-dioxa-1,5,7,8-tetraazatetracyclo[16.2.2.1^6,^9.0^2,^7]tricosa-2,4,6(23),8-tetraen-3-yl]acetic acid]: the half-maximal effective concentration (EC50) came to 735 nM.

Consider `Cc1nc2cc3nn2c(c1[C@H](OC(C)(C)C)C(=O)O)N1CCC(C)(CC1)OCCCCC(c1ccccc1)Oc1ccc(F)cc1COC3` (stereo partly drawn) [Example 51, (2S)-2-(tert-butoxy)-2-{15-fluoro-4,26-dimethyl-20-phenyl-11,19,25-trioxa-1,5,7,8-tetraazapentacyclo[24.2.2.1^6,^9.0^2,^7.0^13,^18]hentriaconta-2,4,6(31),8,13(18),14,16-heptaen-3-yl}acetic acid], for which the EC50 came to 18 nM.

As for `CCCC1CCCCOC2(C)CCN(CC2)c2c([C@H](OC(C)(C)C)C(=O)O)c(C)nc3cc(nn23)COCc2cc(F)ccc2O1` (stereo partly drawn) [Example 50, (2S)-2-(tert-butoxy)-2-{15-fluoro-4,26-dimethyl-20-propyl-11,19,25-trioxa-1,5,7,8-tetraazapentacyclo[24.2.2.1^6,^9.0^2,^7.0^13,^18]hentriaconta-2,4,6(31),8,13(18),14,16-heptaen-3-yl}acetic acid], the 50% effective concentration (EC50) came to 19 nM.

As for `Cc1nc2cc3nn2c(c1[C@H](OC(C)(C)C)C(=O)O)N1CCC(C)(CC1)OCCCCC(c1ccccc1)Oc1ccc(F)cc1COC3` (stereo partly drawn) [Example 52, (2S)-2-(tert-butoxy)-2-{15-fluoro-4,26-dimethyl-20-phenyl-11,19,25-trioxa-1,5,7,8-tetraazapentacyclo[24.2.2.1^6,^9.0^2,^7.0^13,^18]hentriaconta-2,4,6(31),8,13(18),14,16-heptaen-3-yl}acetic acid], the half-maximal effective concentration (EC50) was found to be 60 nM.

What is called EC50 is the concentration needed to bring the measured effect to its halfway point.

These data come from patent US9273067B2, “Pyrazolopyrimidine macrocycles as inhibitors of human immunodeficiency virus replication” (BRISTOL-MYERS SQUIBB COMPANY, priority 2014, dated 2016).
